Laboratory results taken from article PMC7689640, “Analysis of the efficacy of HIV protease inhibitors against SARS-CoV-2′s main protease” (Virology Journal, 2020).
Where two headings read alike, the source gives them in different places.

How the values were obtained:
SARS-CoV-2 M^pro = SARS-CoV-2 M^pro (Severe acute respiratory syndrome coronavirus 2, UniProt P0DTD1); assay: Inhibition profiling in cell culture (dark-to-bright GFP reporter substrate, flow cytometry); assay type: cell-based; conditions: for Inhibition of SARS-CoV-2 M^pro in cell culture: 200 micromolar concentration of the inhibitors, HEK-293 T cells
[1] = patient's serum under antiretroviral treatment; cited from earlier work
HEK-293 T cells = assay: Cell viability assay (MTT); conditions: for Cytotoxicity: HEK-293 T cells; for Tolerability by HEK-293 T cells: high concentrations
SARS-CoV-2 [2] = tested on: SARS-CoV-2; design: method as in PMID 32147628; conditions: in vitro; cited from earlier work
MERS-CoV = conditions: Calu-3 cells; cited from earlier work
SARS-CoV-2 [3] = conditions: Vero E6 cells; cited from earlier work
[4] = tested on: SARS-associated coronavirus; conditions: combination of lopinavir/ritonavir and ribavirin; cited from earlier work
[5] = HEK-293 T cells co-transfected with CoV-2 M^pro and PR-Sub plasmids, 24 h, GFP fluorescence, triplicate experiments, read-out: IC50

For `COC(=O)N[C@H](C(=O)N[C@@H](Cc1ccccc1)[C@@H](O)CN(Cc1ccc(-c2ccccn2)cc1)NC(=O)[C@@H](NC(=O)OC)C(C)(C)C)C(C)(C)C` [Atazanavir, atazanavir], the IC50 (SARS-CoV-2 M^pro; [5]) is given as 60.7 µM, the “Minimum concentration (Cmin)” value [1] is given as less than 1000 nM and the Cytotoxicity (HEK-293 T cells; concentration of 200 µM) is given as “cytotoxicity was not observed”. The “Tolerability by HEK-293 T cells” value (HEK-293 T cells) was “well tolerated”.

In the case of `CC(C)CN(C[C@@H](O)[C@H](Cc1ccccc1)NC(=O)O[C@H]1CO[C@H]2OCC[C@H]21)S(=O)(=O)c1ccc(N)cc1` [Darunavir, darunavir], the IC50 (SARS-CoV-2 M^pro; read-out: IC50) is given as 36.1 µM, the “Concentration inhibiting SARS-CoV-2 replication” value (SARS-CoV-2 [2]) is given as 300 µM and the “Tolerability by HEK-293 T cells” value (HEK-293 T cells) is given as “well tolerated”.

For `Cc1cccc(C)c1OCC(=O)N[C@@H](Cc1ccccc1)[C@@H](O)C[C@H](Cc1ccccc1)NC(=O)[C@H](C(C)C)N1CCCNC1=O` [Lopinavir, lopinavir], the IC50 (SARS-CoV-2 M^pro) is listed as “Indeterminable”, the IC50 (MERS-CoV) is listed as 11.6 µM and the Cytotoxicity (HEK-293 T cells; concentrations above 50 µM) is listed as 90%.

With `Cc1c(O)cccc1C(=O)N[C@@H](CSc1ccccc1)[C@H](O)CN1C[C@H]2CCCC[C@H]2C[C@H]1C(=O)NC(C)(C)C` [Nelfinavir, nelfinavir] the IC50 (SARS-CoV-2 M^pro) was greater than 200 µM and the “Inhibition of SARS-CoV-2 M^pro in cell culture” value (SARS-CoV-2 M^pro) was “failed to inhibit”.

In the case of `CC(C)c1nc(CN(C)C(=O)N[C@H](C(=O)N[C@@H](Cc2ccccc2)C[C@H](O)[C@H](Cc2ccccc2)NC(=O)OCc2cncs2)C(C)C)cs1` [Ritonavir, ritonavir], the “Inhibition of viral replication” value (SARS-CoV-2 [3]) is given as “no inhibition of viral replication”, the IC50 (MERS-CoV) is given as 24.9 µM and the Cytotoxicity (HEK-293 T cells; concentrations above 50 µM) is given as greater than 50%.

For `CC(C)(C)NC(=O)[C@@H]1C[C@@H]2CCCC[C@@H]2CN1C[C@@H](O)[C@H](Cc1ccccc1)NC(=O)[C@H](CC(N)=O)NC(=O)c1ccc2ccccc2n1` [Saquinavir, saquinavir], the IC50 (SARS-CoV-2 M^pro) is listed as 31.4 µM, the “Minimum concentration (Cmin)” value [1] is listed as 3800 nM and the Cytotoxicity (HEK-293 T cells; concentrations above 50 µM) is listed as greater than 50%.

For `CCC[C@@]1(CCc2ccccc2)CC(O)=C([C@H](CC)c2cccc(NS(=O)(=O)c3ccc(C(F)(F)F)cn3)c2)C(=O)O1` [Tipranavir, tipranavir], the “Inhibition of SARS-CoV-2 M^pro in cell culture” value (SARS-CoV-2 M^pro) was “failed to inhibit” and the IC50 (SARS-CoV-2 M^pro; [5]) was greater than 200 µM.

In the case of `NC(=O)c1ncn([C@@H]2O[C@H](CO)[C@@H](O)[C@H]2O)n1` [ribavirin], the “Concentration effective against SARS-associated coronavirus” value [4] is listed as 50 µg/mL.
